Measurements reported in the NIST ThermoML archive (doi:10.1016/j.jct.2006.10.008).

Tests used:
[1] = xn = mol fraction of the nth substance listed; settings: 298.15 K, 101 kPa, Liquid
[2] = excess molar enthalpy (molar enthalpy of mixing); xn = mol fraction of the nth substance listed; settings: 298.15 K, 101 kPa, Liquid, Calvet calorimetry

CCCOC=O [propyl methanoate] + ClCCCCCCCl
Settings	excess molar enthalpy [kcal/mol]	mass density [kg/m3]
[1], x1 = 0.0918	–	1053.78
[1], x1 = 0.1702	–	1044.88
[1], x1 = 0.2469	–	1035.63
[1], x1 = 0.3218	–	1026.16
[1], x1 = 0.3877	–	1017.4
[1], x1 = 0.4551	–	1008
[1], x1 = 0.5167	–	998.95
[1], x1 = 0.5747	–	990.06
[1], x1 = 0.6303	–	981.16
[1], x1 = 0.6844	–	972.09
[1], x1 = 0.7354	–	963.2
[1], x1 = 0.7849	–	954.19
[1], x1 = 0.8768	–	936.4
[1], x1 = 0.9196	–	927.69
[1], x1 = 0.9603	–	919.06
[2], x1 = 0.083	0.0159	–
[2], x1 = 0.1781	0.0287	–
[2], x1 = 0.2715	0.0378	–
[2], x1 = 0.3516	0.0422	–
[2], x1 = 0.4261	0.0428	–
[2], x1 = 0.5	0.0403	–
[2], x1 = 0.5567	0.0351	–
[2], x1 = 0.6558	0.0259	–
[2], x1 = 0.7057	0.0203	–
[2], x1 = 0.7584	0.015	–
[2], x1 = 0.815	0.00994	–
[2], x1 = 0.8628	0.00602	–
[2], x1 = 0.91	0.00292	–
[2], x1 = 0.9591	0.00213	–

CCCOC=O [propyl methanoate] + ClCCCCCl
Settings	excess molar enthalpy [kcal/mol]	mass density [kg/m3]
[1], x1 = 0.0695	–	1119.11
[1], x1 = 0.1347	–	1106.03
[1], x1 = 0.1987	–	1092.92
[1], x1 = 0.2624	–	1079.78
[1], x1 = 0.3279	–	1066.03
[1], x1 = 0.3884	–	1053.07
[1], x1 = 0.4509	–	1039.59
[1], x1 = 0.5061	–	1027.51
[1], x1 = 0.5671	–	1013.93
[1], x1 = 0.6204	–	1001.93
[1], x1 = 0.6808	–	988.13
[1], x1 = 0.7363	–	975.18
[1], x1 = 0.7901	–	962.5
[1], x1 = 0.8426	–	950.01
[1], x1 = 0.8965	–	936.97
[1], x1 = 0.9466	–	924.57
[2], x1 = 0.0711	0.00681	–
[2], x1 = 0.1446	0.00982	–
[2], x1 = 0.2182	0.0105	–
[2], x1 = 0.2908	0.00652	–
[2], x1 = 0.3554	0.00213	–
[2], x1 = 0.4191	-0.00306	–
[2], x1 = 0.4755	-0.007	–
[2], x1 = 0.5267	-0.0106	–
[2], x1 = 0.5668	-0.0133	–
[2], x1 = 0.6196	-0.0168	–
[2], x1 = 0.681	-0.0186	–
[2], x1 = 0.7427	-0.0172	–
[2], x1 = 0.8085	-0.0143	–
[2], x1 = 0.875	-0.00939	–
[2], x1 = 0.939	-0.00533	–

CCCOC=O [propyl methanoate] + ClCCCCl
Settings	excess molar enthalpy [kcal/mol]	mass density [kg/m3]
[1], x1 = 0.0612	–	1161.75
[1], x1 = 0.1204	–	1145.46
[1], x1 = 0.1775	–	1129.76
[1], x1 = 0.2355	–	1113.91
[1], x1 = 0.2944	–	1097.92
[1], x1 = 0.3527	–	1082.1
[1], x1 = 0.4109	–	1066.46
[1], x1 = 0.4695	–	1050.7
[1], x1 = 0.5286	–	1034.93
[1], x1 = 0.5863	–	1019.65
[1], x1 = 0.6459	–	1003.85
[1], x1 = 0.7044	–	988.35
[1], x1 = 0.763	–	972.97
[1], x1 = 0.8214	–	957.74
[1], x1 = 0.8796	–	942.43
[1], x1 = 0.9386	–	927.1
[2], x1 = 0.0618	-0.000717	–
[2], x1 = 0.1342	-0.00406	–
[2], x1 = 0.2092	-0.00951	–
[2], x1 = 0.2838	-0.0162	–
[2], x1 = 0.3515	-0.0231	–
[2], x1 = 0.4148	-0.0297	–
[2], x1 = 0.4714	-0.0358	–
[2], x1 = 0.503	-0.0397	–
[2], x1 = 0.5539	-0.0461	–
[2], x1 = 0.6084	-0.0502	–
[2], x1 = 0.6696	-0.0491	–
[2], x1 = 0.7356	-0.0441	–
[2], x1 = 0.8024	-0.0365	–
[2], x1 = 0.8727	-0.0258	–
[2], x1 = 0.9394	-0.0134	–

CCCOC=O [propyl methanoate] + ClCCCl
Settings	excess molar enthalpy [kcal/mol]	mass density [kg/m3]
[1], x1 = 0.0538	–	1223.09
[1], x1 = 0.1017	–	1203.75
[1], x1 = 0.1515	–	1184.04
[1], x1 = 0.2043	–	1163.71
[1], x1 = 0.2575	–	1143.76
[1], x1 = 0.3685	–	1103.98
[1], x1 = 0.4248	–	1084.54
[1], x1 = 0.4826	–	1065.09
[1], x1 = 0.5426	–	1045.46
[1], x1 = 0.6034	–	1026.11
[1], x1 = 0.6652	–	1006.9
[1], x1 = 0.7294	–	987.38
[1], x1 = 0.794	–	968.29
[1], x1 = 0.8599	–	949.22
[1], x1 = 0.9286	–	929.85
[2], x1 = 0.0489	-0.00894	–
[2], x1 = 0.1034	-0.0201	–
[2], x1 = 0.1594	-0.0337	–
[2], x1 = 0.2211	-0.0473	–
[2], x1 = 0.28	-0.0608	–
[2], x1 = 0.3363	-0.0734	–
[2], x1 = 0.3886	-0.0843	–
[2], x1 = 0.4382	-0.09338	–
[2], x1 = 0.483	-0.1003	–
[2], x1 = 0.5155	-0.104	–
[2], x1 = 0.5716	-0.1046	–
[2], x1 = 0.6361	-0.1004	–
[2], x1 = 0.7083	-0.08982	–
[2], x1 = 0.7725	-0.0749	–
[2], x1 = 0.8488	-0.0545	–
[2], x1 = 0.9302	-0.0292	–
